Like-named read-outs stand apart in the source and are kept apart here.
Columns and labels:
[1] = PK in parallel to rat locomotor battery; assay type: in vivo
Protocol: In order to enable our target validation work, we first profiled PAM 19d in a rat locomotor battery to ensure that pharmacodynamic efficacy was not mistaken for gross effects on locomotion.[20] […] PK was performed in parallel to establish a PK/PD relationship.[24]
Figure S2. 19d assessed in rat locomotor battery A: Exposure of 19d in the locomotor battery experiment. […]

male beagles = experiment: adverse events in dog PK; assay type: in vivo; conditions: 0.5 mg/kg IV
Protocol: Deeper profiling began with IV dog PK (0.5 mg/kg, n = 3 male beagles). […] Was this a mechanism-based toxicity in dog? Could there be dog-specific pharmacology of mGlu1 activation? Were these AEs derived from the 19d chemotype? Could a mGlu1/mGlu5 heterodimer be responsible for the observed AEs? […] In an attempt to address the chemotype question, we evaluated PAM 4 (VU6004909),[8] an early generation rodent in vivo tool compound, for the first time in dog PK. […] of the study with 19d, PAM 4 produced no AEs in dog. […] Therefore, more molecular pharmacology and PK studies as well as additional chemically distinct mGlu1 PAM chemotypes are required to understand the AEs elicited by an mGlu1 PAM in dogs, an otherwise very promising target for the treatment of schizophrenia.

2D6 = target: T1, 2D6 (Homo sapiens, UniProt P10635); experiment: inhibition of cytochrome P450 enzymes; assay type: in vitro ADME; conditions: human liver microsomes; read-out: CYP450 2D6 inhibition
T1 construct: 0.1 mg/mL human liver microsomes (HLM) and Substrate Mix; from tissue; host or cells: human liver microsomes
Protocol: (§1) A cocktail of substrates for cytochrome P450 enzymes (1A2: Phenacetin, 10 μM; 2C9: Diclofenac, 5 μM; 2D6: Dextromethorphan, 5 μM; 3A4: Midazolam, 2 μM) were mixed for cocktail analysis. For P450 2C19, the substrate stock (Mephenytoin, 40 μM)and substrate mix were prepared separately for discrete analysis. The positive control for pan-P450 inhibition (miconazole) was included alongside each test compound in analysis.
(§2) A reaction mixture of 100 mM Kpi, pH 7.4, 0.1 mg/mL human liver microsomes (HLM) and Substrate Mix is prepared and aliquoted into a 96-deepwell block. Test compound and positive control (in duplicate) were then added such that the final concentration of test compound ranged from 0.1–30 μM. The plate was vortexed briefly and then preincubated at 37 °C while shaking for 15 min. The reaction was initiated with the addition of NADPH (1 mM final concentration). The incubation continued for 8 min and the reaction quenched by 2x volume of cold acetonitrile containing internal standard (50 nM carbamazepine). The plate was centrifuged for 10 min (4000 rcf, 4 °C) and the resulting supernatant diluted 1:1 with water for LC/MS/MS analysis. A 12 point standard curve of substrate metabolites over the range of 0.98 nM to 2000 nM.
(§3) Samples were analyzed via electrospray ionization (ESI) on an AB Sciex API-4000 (Foster City, CA) triple-quadrupole instrument that was coupled with Shimadzu LC-10AD pumps (Columbia, MD) and a Leap Technologies CTC PAL autosampler (Carrboro, NC). Analytes were separated by gradient elution using a Fortis C18 3.0 × 50 mm, 3 μm column (Fortis Technologies Ltd., Cheshire, UK) thermostated at 40 °C. […]
(§4) The IC50 values for each compound were obtained for the individual CYP enzymes by quantitating the inhibition of metabolite formation for each probe substrate. A 0 μM compound condition (or control) was set to 100% enzymatic activity and the effect of increasing test compound concentrations on enzymatic activity could then be calculated from the % of control activity. […]

1A2 = target: T2, 1A2 (Homo sapiens, UniProt P05177); experiment: inhibition of cytochrome P450 enzymes; assay type: in vitro ADME; conditions: human liver microsomes; read-out: CYP450 1A2 inhibition
T2 construct: 0.1 mg/mL human liver microsomes (HLM) and Substrate Mix; from tissue; host or cells: human liver microsomes
Protocol: as §1, §2, §3, §4

2C9 = target: T3, 2C9 (Homo sapiens, UniProt P11712); experiment: inhibition of cytochrome P450 enzymes; assay type: in vitro ADME; conditions: human liver microsomes; read-out: CYP450 2C9 inhibition
T3 construct: 0.1 mg/mL human liver microsomes (HLM) and Substrate Mix; from tissue; host or cells: human liver microsomes
Protocol: as §1, §2, §3, §4

rat mGlu1 = rat mGlu1 (Rattus norvegicus, UniProt P23385); experiment: progressive fold-shift assay, operational model of allosterism; assay type: cell-based
Source text: (§5) To further characterize this novel mGlu1 PAM, we performed progressive fold-shift assays at both human and rat mGlu1 (Figure 4).
(§6) Figure 4 Operational modeling of the effects of increasing concentrations of VU6024578 (19d) on rat (A) and human (B) mGlu1receptors. Increasing amounts of 19d were applied prior to increasing concentrations of glutamate at either rat or human mGlu1. Data were fit in GraphPad Prism as indicated in the Methods section; for panel A, log α was 0.95 and for panel B it was 1.26. Data represent one experiment performed in duplicate.

human mGlu1 = target: T4, human mGlu1 (Homo sapiens, UniProt Q13255); experiment: as above; assay type: cell-based
T4 construct: expressed in transfected cells; pcDNA5/TO)
Source text: as §5, §6

[2] = brain exposure in rat AHL Cmax versus Ctrough study; assay type: in vivo
Protocol: Based on these positive behavioral data and the clear PK/PD relationship tied to achieving free brain levels at, or above, the mGlu1 PAM EC50, we next wanted to define the role of Cmax versus Ctrough drug (19d) concentrations in driving the PK/PD relationship. To accomplish this, pretreatment times and doses were calculated based upon previous PK (see Supporting Information Figure S3)[20] data to target free brain concentrations at and below the in vitro EC50 at the time of amphetamine challenge. Rats were pretreated with 3 mg/kg 19d or vehicle after habituation to the locomotor chambers are described in Figure 9A. Rats pretreated with 19d (10–60 mg/kg) or vehicle were administered compound prior to starting the amphetamine-induced hyperlocomotion experiment as depicted in Figure 9B-D. Ambulations were evaluated for 90 min post amphetamine treatment for all dosing groups. Pretreatment of 19d, chamber habituation, amphetamine treatment and ambulation recording times are outlined for each dosing group in Figure 9. Blood and brain samples were obtained at the end of testing (EOT) to determine 19d levels at the end of the study (Table 6).
The terminal free brain concentrations for this dosing group were 40 nM. […]

Chain of rat mGlu1 (P23385 19-1199): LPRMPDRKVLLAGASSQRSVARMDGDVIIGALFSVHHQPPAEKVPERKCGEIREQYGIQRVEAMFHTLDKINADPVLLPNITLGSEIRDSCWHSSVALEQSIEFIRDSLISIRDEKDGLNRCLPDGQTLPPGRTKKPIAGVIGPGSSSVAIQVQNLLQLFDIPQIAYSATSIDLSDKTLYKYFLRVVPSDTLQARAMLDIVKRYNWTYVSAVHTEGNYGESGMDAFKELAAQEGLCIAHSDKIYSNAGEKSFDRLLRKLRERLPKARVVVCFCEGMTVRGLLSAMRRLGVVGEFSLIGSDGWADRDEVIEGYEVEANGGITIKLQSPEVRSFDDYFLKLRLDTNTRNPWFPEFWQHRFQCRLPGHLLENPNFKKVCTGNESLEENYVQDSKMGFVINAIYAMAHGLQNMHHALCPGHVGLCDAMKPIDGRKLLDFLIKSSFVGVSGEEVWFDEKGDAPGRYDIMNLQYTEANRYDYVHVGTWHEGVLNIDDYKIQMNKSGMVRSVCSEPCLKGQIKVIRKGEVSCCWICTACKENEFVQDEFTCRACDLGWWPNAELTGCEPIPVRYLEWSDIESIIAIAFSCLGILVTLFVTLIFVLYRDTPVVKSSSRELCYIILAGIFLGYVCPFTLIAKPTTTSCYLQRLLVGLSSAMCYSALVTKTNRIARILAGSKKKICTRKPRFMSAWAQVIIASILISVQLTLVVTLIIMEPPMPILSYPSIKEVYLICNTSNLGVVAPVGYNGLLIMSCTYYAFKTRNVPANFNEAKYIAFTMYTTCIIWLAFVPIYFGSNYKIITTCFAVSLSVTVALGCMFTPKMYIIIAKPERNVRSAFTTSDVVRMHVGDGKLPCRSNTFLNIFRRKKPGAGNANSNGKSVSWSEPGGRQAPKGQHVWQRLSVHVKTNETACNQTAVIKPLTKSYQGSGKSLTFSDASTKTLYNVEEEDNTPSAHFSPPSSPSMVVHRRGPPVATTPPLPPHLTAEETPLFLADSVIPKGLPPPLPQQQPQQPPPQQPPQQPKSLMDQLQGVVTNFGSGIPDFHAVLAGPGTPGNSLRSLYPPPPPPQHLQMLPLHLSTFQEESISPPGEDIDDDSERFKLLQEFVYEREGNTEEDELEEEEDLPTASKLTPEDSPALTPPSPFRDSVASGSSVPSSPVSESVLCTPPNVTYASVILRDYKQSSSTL
T4 sequence (Q13255 19-1194): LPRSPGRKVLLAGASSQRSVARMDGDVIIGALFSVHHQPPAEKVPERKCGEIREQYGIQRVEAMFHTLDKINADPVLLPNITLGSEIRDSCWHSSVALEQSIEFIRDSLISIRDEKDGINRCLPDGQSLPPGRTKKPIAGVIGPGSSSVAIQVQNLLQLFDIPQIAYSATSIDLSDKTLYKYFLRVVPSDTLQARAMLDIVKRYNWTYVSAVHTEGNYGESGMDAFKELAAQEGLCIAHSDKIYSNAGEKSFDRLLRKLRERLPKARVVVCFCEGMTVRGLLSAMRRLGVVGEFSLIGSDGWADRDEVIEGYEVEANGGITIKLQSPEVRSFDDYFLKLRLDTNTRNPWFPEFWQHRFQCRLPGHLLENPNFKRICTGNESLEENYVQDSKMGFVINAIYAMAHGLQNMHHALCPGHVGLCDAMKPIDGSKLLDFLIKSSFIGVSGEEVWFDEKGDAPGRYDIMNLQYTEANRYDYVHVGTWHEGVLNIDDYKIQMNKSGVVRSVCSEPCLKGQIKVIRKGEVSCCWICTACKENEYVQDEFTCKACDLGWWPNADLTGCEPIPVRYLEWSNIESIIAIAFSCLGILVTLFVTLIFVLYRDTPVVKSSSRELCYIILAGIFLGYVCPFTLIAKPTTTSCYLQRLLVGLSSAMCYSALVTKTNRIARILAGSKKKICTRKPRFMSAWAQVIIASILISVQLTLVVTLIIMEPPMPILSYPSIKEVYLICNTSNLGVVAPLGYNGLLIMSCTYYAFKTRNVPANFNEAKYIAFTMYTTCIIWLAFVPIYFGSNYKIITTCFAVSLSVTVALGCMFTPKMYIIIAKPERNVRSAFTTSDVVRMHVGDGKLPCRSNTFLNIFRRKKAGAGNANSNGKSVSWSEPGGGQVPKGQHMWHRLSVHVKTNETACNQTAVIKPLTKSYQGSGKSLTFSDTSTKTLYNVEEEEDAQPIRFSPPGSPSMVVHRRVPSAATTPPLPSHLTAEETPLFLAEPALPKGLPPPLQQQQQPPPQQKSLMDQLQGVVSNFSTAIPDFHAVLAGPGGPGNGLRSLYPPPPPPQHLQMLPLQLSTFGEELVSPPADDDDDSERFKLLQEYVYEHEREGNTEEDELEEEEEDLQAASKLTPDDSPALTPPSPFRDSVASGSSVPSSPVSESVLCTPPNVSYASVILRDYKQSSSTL
T3 sequence (P11712 whole entry): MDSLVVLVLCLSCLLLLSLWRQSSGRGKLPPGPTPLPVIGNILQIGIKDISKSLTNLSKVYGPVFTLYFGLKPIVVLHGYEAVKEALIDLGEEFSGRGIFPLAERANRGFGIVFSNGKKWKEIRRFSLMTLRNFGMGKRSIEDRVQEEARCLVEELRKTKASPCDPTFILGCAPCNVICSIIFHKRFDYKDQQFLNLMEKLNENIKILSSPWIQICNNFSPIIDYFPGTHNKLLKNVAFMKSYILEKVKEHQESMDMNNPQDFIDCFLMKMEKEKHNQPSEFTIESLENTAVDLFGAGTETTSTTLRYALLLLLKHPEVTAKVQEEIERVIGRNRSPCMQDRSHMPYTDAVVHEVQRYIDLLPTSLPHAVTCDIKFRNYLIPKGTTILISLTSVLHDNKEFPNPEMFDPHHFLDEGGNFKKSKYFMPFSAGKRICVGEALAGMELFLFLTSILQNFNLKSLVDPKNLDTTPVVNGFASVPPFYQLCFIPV
T1 sequence (P10635 whole entry): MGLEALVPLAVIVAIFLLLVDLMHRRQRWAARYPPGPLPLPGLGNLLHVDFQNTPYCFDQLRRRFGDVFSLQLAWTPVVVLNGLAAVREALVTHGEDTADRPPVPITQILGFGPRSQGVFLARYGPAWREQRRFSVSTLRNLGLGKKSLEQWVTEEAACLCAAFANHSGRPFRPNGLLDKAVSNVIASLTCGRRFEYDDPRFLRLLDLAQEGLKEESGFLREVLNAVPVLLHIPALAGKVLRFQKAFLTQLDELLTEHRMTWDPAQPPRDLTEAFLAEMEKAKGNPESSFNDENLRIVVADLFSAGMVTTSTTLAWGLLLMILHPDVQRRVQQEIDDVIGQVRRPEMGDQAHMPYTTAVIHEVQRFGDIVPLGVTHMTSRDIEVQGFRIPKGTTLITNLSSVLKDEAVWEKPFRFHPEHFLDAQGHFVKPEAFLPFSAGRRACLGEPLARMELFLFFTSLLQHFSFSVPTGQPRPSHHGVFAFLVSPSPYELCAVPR
T2 sequence (P05177 whole entry): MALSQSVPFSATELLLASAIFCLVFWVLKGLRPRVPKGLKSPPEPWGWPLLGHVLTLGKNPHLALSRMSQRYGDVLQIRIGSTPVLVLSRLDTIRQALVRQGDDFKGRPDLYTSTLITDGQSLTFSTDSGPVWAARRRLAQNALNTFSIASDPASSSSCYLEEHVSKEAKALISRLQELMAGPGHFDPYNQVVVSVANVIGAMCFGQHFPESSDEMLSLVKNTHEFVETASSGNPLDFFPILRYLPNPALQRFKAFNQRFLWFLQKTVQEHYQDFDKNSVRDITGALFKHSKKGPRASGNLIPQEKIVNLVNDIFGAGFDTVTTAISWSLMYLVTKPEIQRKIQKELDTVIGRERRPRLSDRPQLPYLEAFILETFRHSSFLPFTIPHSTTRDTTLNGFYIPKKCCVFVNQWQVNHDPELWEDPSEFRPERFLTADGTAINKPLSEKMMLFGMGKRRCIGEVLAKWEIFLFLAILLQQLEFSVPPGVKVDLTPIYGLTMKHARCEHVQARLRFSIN

Structure (SMILES): Cn1nc(-c2ccnn2C)cc1CNC(=O)c1cc(-c2ccco2)ccc1Cl [Compound 19d, 2-Chloro-N-((1,2′-dimethyl-1H,2’H-[3,3′-bipyrazol]-5-yl)methyl)-5-(furan-2-yl)benzamide]
- Kp ([1]; brain, rat locomotor battery PK): ~0.75
- free brain concentration ([1]; rat, 10 mg/kg): 134 nM
- free brain concentration over in vitro EC50 ([1]; rat, 10 mg/kg): ~2.9 fold
- adverse events (AEs) in dog (male beagles; 0.5 mg/kg): GI-salivation and rigidity
- time of AEs postdose (male beagles; at Cmax): 1 to 3 min
- adverse events (AEs) in dog (male beagles; listed as VU6024578/BI02982816, 0.5 mg/kg): unanticipated AEs
- IC50 (2D6): 28000 nM
- IC50 (1A2): 17000 nM
- IC50 (2C9): 6400 nM
- EC50 (rat mGlu1; in Figure 4A): 44 nM
- log α (rat mGlu1; panel A (rat), one experiment in duplicate): 0.95
- Kb (rat mGlu1; rat mGlu1, operational model of allosterism, read-out: estimated KB): 1040 nM
- Kb (rat mGlu1; rat mGlu1, printed in Figure 4A, read-out: KB): 1040 nM
- Kb (human mGlu1; human mGlu1, operational model of allosterism, read-out: estimated KB): 219 nM
- log α (human mGlu1; panel B (human), one experiment in duplicate): 1.26
- EC50 (human mGlu1; printed in Figure 4B): 46 nM
- Cmax over rat in vitro potency ([2]; 60 mg/kg, at Tmax): 6.8 fold
- concentration at 2.5 h ([2]; Sprague-Dawley, brain, oral, 3 mg/kg, pretreatment time 2.5 hr, read-out: Brain Unbound @EOT): 40 nM
- concentration at 6.5 h ([2]; Sprague-Dawley, brain, oral, 10 mg/kg, pretreatment time 6.5 hr, read-out: Brain Unbound @EOT): 44 nM
- concentration at 15 h ([2]; Sprague-Dawley, brain, oral, 60 mg/kg, pretreatment time 15 hr, read-out: Brain Unbound @EOT): 3 nM
- concentration at 30 h ([2]; Sprague-Dawley, brain, oral, 60 mg/kg, pretreatment time 30 hr, read-out: Brain Unbound @EOT): 6 nM

Reference: publication PMC11684029, “Discovery of VU6024578/BI02982816: An mGlu1 Positive Allosteric Modulator with Efficacy in Preclinical Antipsychotic and Cognition Models” (Journal of Medicinal Chemistry, 2024)
